This is an account of results in patent US20220324817A1, “QUINAZOLINE PRODRUGS FOR THE TREATMENT OF VIRAL INFECTIONS AND FURTHER DISEASES” (Janssen Sciences Ireland Unlimited Company, priority 2019, published 2022).

Assay type in all cases: in vitro ADME
The nature of data set [1]: Intrinsic clearance in rat liver microsomes. Conditions: 37° C., 1 μM compound, 1 mg/mL microsomal protein. As for the experimental part: (§1) Intrinsic clearance (CLint). CLint was determined in rat and human liver microsomes. Incubations were performed at 37° C., at a concentration of 1 μM of compound, and a microsomal protein concentration of 1 mg/mL. Serial samples were removed at intervals of up to 60 min and analyzed for the concentration of compound to determine its intrinsic clearance rate. Compound was incubated in rat and human hepatocytes (10^6 cells/mL) at 1 μM for 0, 10, 20, 40, 60 and 120 min. Serial samples were removed at intervals of up to 120 min and analyzed for the concentration of compound to determine its intrinsic clearance rate. Permeability and Efflux in vitro. The in vitro permeability and potential to be transported by P-glycoprotein (P-gp) was determined using an MDCK cell line transfected with human MDR1 (P-glycoprotein). […] Permeability in the A→B direction in absence and presence of GF120918 and in the B→A direction in absence of GF120918 was measured by monitoring the appearance of the test compound on the opposite side of the membrane using a specific LC-MS/MS method. The efflux ratio (B→*A-GF120918/A→B-GF120918) was calculated to determine whether the test compound was a P-gp substrate. […] Plasma stability is measured in rat and human plasma for 7 or 24 h at 37° C. […] Samples were analyzed by LC-MS/MS (without internal standard). […] Half-life (t1/2 in hours) is calculated from those data. […]
In general terms: Liver microsomes are a subcellular fraction often used to study metabolism.

Data set [2] relates to P-glycoprotein (human MDR1). As to the kind of experiment: Permeability and efflux in vitro in MDCK-MDR1 cell line. To be noted: dog, MDCK-MDR1 cells, in absence of GF120918. As to the method:
as §1

Data set [3] can be described thus: Intrinsic clearance in human liver microsomes. To be noted: 37° C., 1 μM compound, 1 mg/mL microsomal protein. As to the method: as §1

Regarding `CCCC[C@H](COC(=O)C(C)C)Nc1nc(NC(=O)C(C)C)nc2c(C)cccc12` [Compound 2, (R)-2-((2-isobutyramido-8-methylquinazolin-4-yl)amino)hexyl isobutyrate], the microsomal CLint (commonly the rate of metabolic loss divided by the concentration) at 1 μM in data set [1] is 84 µL/min/mg.

For the compound `CCCC[C@H](CO)Nc1nc(NC(=O)OCC)nc2c(C)cccc12` [Compound 1, ethyl (R)-(4-((1-hydroxyhexan-2-yl)amino)-8-methylquinazolin-2-yl)carbamate], the Papp A→B (commonly how fast a substance crosses the layer from the apical side) in data set [2] was 8.22 ×10⁻⁶ cm/s. In addition, the efflux ratio in data set [2] (read-out: Efflux ratio B -> A/A -> B) came to 4.5. Besides, the results for the intrinsic metabolic clearance (microsomal CLint) at 1 μM in data set [1] and in data set [3] were 109 µL/min/mg and 47 µL/min/mg, respectively.
